Patent publication US11084826B2, “RSV antiviral pyrazolo- and triazolo-pyrimidine compounds” (Janssen Sciences Ireland Unlimited Company, priority 2015, dated 2021)

How the values were obtained:
[1] = Cytotoxicity in HeLa cells, ATP content measured with the ATPlite kit; assay type: cell-based; settings: human, TOX HELA pCC50
[2] = system: rgRSV224 virus; assay: Antiviral activity: inhibition of rgRSV224 (GFP-expressing RSV) replication in HeLa cells, GFP expression read-out; assay type: cell-based, respiratory syncytial virus (RSV); settings: human respiratory syncytial virus, HeLa, read-out: RSV HELA pEC50, rgRSV224 virus (MOI=1) in HeLa cells, GFP read-out (converted)
Procedure, shortened: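 HeLa cells (3,000/well) were infected with GFP-expressing rgRSV224 (MOI=1) in the presence of 9 serial 4-fold compound dilutions (0.05% DMSO) and incubated at 37° C, 5% CO2. After three days, GFP expression was measured by laser microscopy. EC50 is the concentration giving 50% inhibition of GFP expression.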

Structure (SMILES)	melting point	CC50 at 3 days [1]	EC50 [2]
CCc1cc(C(=O)N2CCCCCC2C)nc2cc(-c3ccc(NC(=O)Cn4ccnc4)cc3F)nn12 (stereo not drawn) [Compound E3]	155 to 160 °C	6.46 µM	132 nM
CCc1cc(C(=O)N2CCCCCC2C)nc2cc(-c3ccc(NC(=O)C4CC4)cc3F)nn12 (stereo not drawn) [Compound E11]	145 °C	> 25.1 µM	631 nM
CCc1cc(C(=O)N2CCCCCC2C)nc2cc(-c3ccc(CCC(N)=O)cc3F)nn12 (stereo not drawn) [Compound R1]	95 to 100 °C	> 25.1 µM	251 nM
CCc1cc(C(=O)N2CCCCCC2C)nc2cc(-c3ccc4c(c3)CC(=O)N4C)nn12 (stereo not drawn) [Compound A9]	225 to 230 °C	> 25.1 µM	537 nM
CCc1cc(C(=O)N2CCc3ccccc3C2C)nc2cc(-c3ccc(C(=O)O)cc3F)nn12 (stereo not drawn) [Compound K1]	165 to 170 °C	> 25.1 µM	158 nM
CCc1cc(C(=O)N2CCCCC[C@H]2C)nc2cc(-c3ccc(NC(=O)C4CC4)cc3F)nn12 [Compound E10]	225 to 230 °C	> 25.1 µM	91.2 nM
CCc1cc(C(=O)N2CCCc3ccccc3C2C)nc2cc(-c3ccc(C(=O)O)cc3F)nn12 (stereo not drawn) [Compound K8]	105 to 110 °C	> 25.1 µM	437 nM
CCc1cc(C(=O)N2CCCCC[C@H]2C)nc2cc(-c3ccc(N4C[C@@H]5CC(C(=O)O)=C[C@@H]5C4)cc3F)nn12 [Compound W12]	252.19 °C	63.1 µM	204 nM
CCc1cc(C(=O)N2CCCCC[C@H]2C)nc2cc(-c3ccc(N4CCC(CO)(C(=O)O)C4)cc3F)nn12 (stereo partly drawn) [Compound W18]	276.58 °C	> 100 µM	81.3 nM
C[C@@H]1CCCCCN1C(=O)c1cc(C2(C)CC2)n2nc(-c3ccc(C4C[C@H]4C(=O)O)cc3F)cc2n1 (mixture of isomers) [Compound O10]	333.75 °C	45.7 µM	28.8 nM
CCc1cc(C(=O)N2CCCCC[C@H]2C)nc2cc(-c3ccc(N(C)[C@H]4C[C@@H](C(=O)O)C4)cc3F)nn12 (racemic) [Compound W23]	182.69 °C	79.4 µM	75.9 nM
C[C@@H]1CCCCCN1C(=O)c1cc(C2CCC2)n2nc(-c3ccc(C4C[C@H]4C(=O)O)cc3F)cc2n1 (mixture of isomers) [Compound O11]	249.19 °C	47.9 µM	30.2 nM
C[C@@H]1c2ccccc2CCN1C(=O)c1cc(C2CC2)n2nc(-c3ccc(N4CC[C@H](C(=O)O)C4)cc3F)cc2n1 [Compound W38]	214 °C	46.8 µM	5.75 nM
CC1c2ccsc2CCN1C(=O)c1cc(C2CC2)n2nc(-c3ccc(-n4cc(C(=O)O)cn4)cc3F)cc2n1 (stereo not drawn) [Compound W41]	257.83 °C	> 25.1 µM	13.2 nM
CCc1cc(C(=O)N2CCCCCC2C)nc2cc(-c3ccc4c(c3)CC(=O)N4)nn12 (stereo not drawn) [Compound A8]	230 to 235 °C	> 25.1 µM	646 nM
CCc1cc(C(=O)N2CCCCCC2C)nc2cc(-c3ccc(NC(=O)CCOC)cc3F)nn12 (stereo not drawn) [Compound E7]	175 to 180 °C	> 25.1 µM	117 nM
CCc1cc(C(=O)N2CCCCCC2C)nc2cc(-c3ccc(NC(=S)NCC4CCCO4)cc3F)nn12 (stereo not drawn) [Compound B13]	210 to 215 °C	> 25.1 µM	398 nM
CCc1cc(C(=O)N2CCCCCCC2C)nc2cc(-c3ccc(NC(=O)NCC4CCCO4)cc3F)nn12 (stereo not drawn) [Compound B3]	195 to 200 °C	> 25.1 µM	79.4 nM
CC1CCCCCN1C(=O)c1cc(N2CCCC2)n2nc(-c3ccc(NC(=O)NCC4CCCO4)cc3)cc2n1 (stereo not drawn) [Compound B10]	228 to 230 °C	> 100 µM	316 nM
CCc1cc(C(=O)N2CCc3sccc3[C@H]2C)nc2cc(-c3cccc(/C=C/C(=O)O)c3F)nn12 (single isomer, unassigned) [Compound M49]	262.19 °C	41.7 µM	10 nM
CC1c2ccsc2CCN1C(=O)c1cc(C2CC2)n2nc(-c3cccc(/C=C/C(=O)O)c3F)cc2n1 (stereo not drawn) [Compound M46]	265.43 °C	67.6 µM	5.01 nM
CCc1cc(C(=O)N2CCn3cccc3C2C)nc2cc(-c3ccc(/C=C/C(=O)O)cc3F)nn12 (stereo not drawn) [Compound M43]	255 to 260 °C	> 25.1 µM	47.9 nM
CCc1cc(C(=O)N2CCCCCC2C)nc2cc(-c3ccc4ncccc4c3)nn12 (stereo not drawn) [Compound A11]	170 to 175 °C	> 25.1 µM	646 nM
CCc1cc(C(=O)N2CCCCCC2C)nc2cc(-c3ccc4c(c3)CCN4C)nn12 (stereo not drawn) [Compound A10]	155 °C	> 25.1 µM	2090 nM

Structure (SMILES)	melting point	CC50 at 3 days [1]	EC50 [2]
CCc1cc(C(=O)N2CCCCCC2C)nc2cc(-c3ccc(NC(=O)NCC4CCCO4)cc3F)nn12 (stereo not drawn) [Compound B1]	140 °C	> 100 µM	129 nM
CCc1cc(C(=O)N2CCCCCC2C)nc2cc(-c3ccc(C(N)=O)cc3)nn12 (stereo not drawn) [Compound A25]	155 to 160 °C	> 100 µM	550 nM
CCc1cc(C(=O)N2CCCCCC2C)nc2cc(-c3ccc(NC(=O)Cc4ccncc4)cc3F)nn12 (stereo not drawn) [Compound E2]	195 to 200 °C	> 25.1 µM	93.3 nM
CCc1cc(C(=O)N2CCCCCCC2C)nc2cc(-c3ccc(C(=O)O)cc3F)nn12 (stereo not drawn) [Compound K4]	133 to 134 °C	> 25.1 µM	275 nM
CCc1cc(C(=O)N2CCCCCN2C)nc2cc(-c3ccc(-n4cc(C(=O)O)cn4)cc3F)nn12 [Compound W32]	268.79 °C	> 100 µM	219 nM
CC1c2ccsc2CCN1C(=O)c1cc(C2(C)CC2)n2nc(-c3ccc(-n4cc(C(=O)O)cn4)cc3F)cc2n1 (racemic) [Compound W39]	265.13 °C	55 µM	28.2 nM
CCc1cc(C(=O)N2CCC3=C(CCCC3)C2C)nc2cc(-c3cccc(/C=C/C(=O)O)c3F)nn12 (racemic) [Compound M51]	227.14 °C	66.1 µM	162 nM
C[C@@H]1CCCCCN1C(=O)c1cc(C2CCC2)n2nc(-c3ccc4c(c3F)OCC(C(=O)O)=C4)cc2n1 [Compound F39]	230.94 °C	44.7 µM	38.9 nM
CCc1cc(C(=O)N2CCCCCC2C)nc2cc(-c3ccc4c(c3)ncn4C)nn12 (stereo not drawn) [Compound A14]	115 °C	> 25.1 µM	398 nM
CCc1cc(C(=O)N2CCCCC2C)nc2cc(-c3ccc(-c4ccncc4)cc3)nn12 (stereo not drawn) [Compound F1]	150 to 151 °C	38 µM	871 nM
CCc1cc(C(=O)N2CCCCCC2C)nc2cc(-c3ccc(NC(=O)CC#N)cc3F)nn12 (stereo not drawn) [Compound E6]	245 to 250 °C	> 25.1 µM	166 nM
CCc1cc(C(=O)N2CCCCCC2C)nc2cc(-c3ccc(S(=O)(=O)NC)cc3F)nn12 (stereo not drawn) [Compound P3]	116 °C	> 25.1 µM	692 nM
C[C@@H]1CCCCCN1C(=O)c1cc(C2(C)CC2)n2nc(-c3ccc(-n4cc(C(=O)O)cn4)cc3F)cc2n1 [Compound W10]	239.85 °C	52.5 µM	30.9 nM
CCc1cc(C(=O)N2CCCCC[C@H]2C)nc2cc(-c3ccc(N4CCC(C)(C(=O)O)C4)cc3F)nn12 (stereo partly drawn) [Compound W17]	172.28 °C	58.9 µM	21.9 nM
C[C@@H]1CCCCCN1C(=O)c1cc(C2CCC2)n2nc(-c3ccc(-n4cc(C(=O)O)cn4)cc3F)cc2n1 [Compound W9]	142.16 °C	51.3 µM	46.8 nM
CCc1cc(C(=O)N2CCCCCC2C)nc2cc(-c3c(F)cc(C(N)=O)cc3F)nn12 (stereo not drawn) [Compound I27]	160 to 165 °C	> 25.1 µM	251 nM
CCc1cc(C(=O)N2CCCCC[C@H]2C)nc2cc(-c3ccc(N4CC[C@](C)(C(=O)O)C4)cc3F)nn12 [Compound W49]	179.2 °C	53.7 µM	43.7 nM
CCc1cc(C(=O)N2CCCCCC2C)nc2c(F)c(-c3ccc(NS(C)(=O)=O)cc3F)nn12 (stereo not drawn) [Compound D4]	210 to 212 °C	> 25.1 µM	490 nM
CC1CCCCCN1C(=O)c1cc(N2CCCC2)n2nc(-c3ccc(NC(=O)C4CC4)cc3)cc2n1 (stereo not drawn) [Compound E17]	282 to 284 °C	> 50.1 µM	513 nM
CCc1cc(C(=O)N2CCCCCC2C)nc2cc(-c3ccc(S(N)(=O)=O)cc3F)nn12 (stereo not drawn) [Compound P2]	229 °C	> 25.1 µM	646 nM
CCc1cc(C(=O)N2CCn3cccc3C2C)nc2cc(-c3ccc(C(=O)O)cc3F)nn12 (stereo not drawn) [Compound K9]	155 to 160 °C	> 25.1 µM	525 nM
C[C@@H]1CCCCCN1C(=O)c1cc(C2CCC2)n2nc(-c3ccc4cc(C(=O)O)c(=O)oc4c3F)cc2n1 (racemic) [Compound F53]	175.52 °C	60.3 µM	36.3 nM
CCc1cc(C(=O)N2CCCCCCC2C)nc2cc(-c3ccc(C(N)=O)cc3)nn12 (stereo not drawn) [Compound A29]	170 to 175 °C	> 25.1 µM	155 nM
